The record followed here is article PMC3705412, “PTP1B Inhibitory and Anti-Inflammatory Effects of Secondary Metabolites Isolated from the Marine-Derived Fungus Penicillium sp. JF-55” (Marine Drugs, 2013).

Holding throughout (format): cell-based, murine (C57BL/6 mice)
In one experiment the test system is IκB-α. Nature of the experiment: Western blotting of IκB-α phosphorylation and degradation in LPS-stimulated macrophages. The note with it: pre-treatment 12 h, 5 to 40 μM, LPS 1 μg/mL 1 h. Here is the method: (§1) Figure 5 The effects of penstyrylpyrone (1) on the protein expression level of IκB-α phosphorylation, degradation of IκB-α (A), NF-κB translocation (B), and NF-κB DNA binding activity (C) in murine peritoneal macrophages. Murine peritoneal macrophages were pre-treated for 12 h at the indicated concentrations of penstyrylpyrone (1), and stimulated for 1 h with LPS (1 μg/mL). Western blotting analysis of IκB-α and p-IκB-α in the cytoplasm and NF-κB in the nucleus (A, B) were performed. A commercially available NF-κB ELISA (Active Motif) was used to test the nuclear extracts and to determine the degree of NF-κB binding (C). […]
(§2) Murine peritoneal macrophages were homogenized (1:20, w:v) in PER-Mammalian Protein Extraction buffer (Pierce Biotechnology, Rockford, IL, USA) containing freshly added protease inhibitor cocktail I (EMD Biosciences, San Diego, CA, USA) and 1 mM phenylmethylsulfonyl fluoride (PMSF). […] The protein concentration was determined using the bicinchoninic acid (BCA) protein assay kit.
(§3) Western blotting analysis was performed by lysing the cells in 20 mM Tris-HCl buffer (pH 7.4) containing a protease inhibitor mixture (0.1 mM PMSF, 5 mg/mL aprotinin, 5 mg/mL pepstatin A, and 1 mg/mL chymostatin). The protein concentration was determined using a Lowry protein assay kit (P5626; Sigma Chemical Co., St. Louis, MO, USA). […]
For orientation: In western blotting, separated proteins are transferred to a membrane and probed.

Another experiment has as its system iNOS. Description: Western blotting of iNOS protein expression in LPS-stimulated macrophages. The note with it: pre-treatment 12 h, LPS 1 μg/mL 18 h. As to the method: Figure 3 The effects of penstyrylpyrone (1) (A), anhydrofulvic acid (2) (B), and citromycetin (3) (C) on the protein expression of iNOS and COX-2 in murine peritoneal macrophages stimulated with LPS. Murine peritoneal macrophages were pre-treated for 12 h at the indicated compound concentrations and stimulated for 18 h with LPS (1 μg/mL). Western blotting analysis was performed, and the representative blots of three independent experiments are shown.
C57BL/6 mice were purchased from Orient Bio Co. (Sungnam, Kyung-Kido, Korea). TG-elicited peritoneal macrophages were harvested four days after intraperitoneal (i.p.) injection of 3 mL of TG [37]. Peritoneal lavage was performed using 8 mL of Hanks’ Balanced Salt Solution containing 10 U/mL heparin. The cells were distributed in Roswell Park Memorial Institute medium (RPMI) supplemented with 10% heat-inactivated FBS, in 6-well tissue culture plates (5 × 10^6 cells/mL).
as §3

In another experiment the test system is HO-1. Description: Effect of the HO-1 inhibitor SnPP on the inhibition of pro-inflammatory mediators in LPS-stimulated macrophages. Conditions: 40 μM pre-treatment 12 h, SnPP 50 μM, LPS 1 μg/mL 18 h. As to the method: Figure 8 The effects of SnPP on the inhibition of nitrite production (A), PGE2 production (B), NF-κB DNA-binding activity (C), TNF-α production (D), and IL-1β production (E) by penstyrylpyrone (1) pre-treatment of LPS-stimulated murine peritoneal macrophages. Murine peritoneal macrophages were pre-treated for 12 h with penstyrylpyrone (1) (40μM), in the presence or absence of SnPP (50 μM) and stimulated for 18 h with LPS (1μg/mL). The nitrite (A), PGE2 (B), TNF-α (D), and IL-1β (E) concentrations and nuclear NF-κB DNA-binding activity (C) were investigated as described in Materials and Methods. […]
The production of nitrite, a stable end product of NO oxidation, was used as a measure of iNOS activity. The nitrite present in the conditioned medium was determined using a method based on the Griess reaction.
The level of PGE2, TNF-α or IL-1β present in each sample was determined using a commercially available kit from R & D Systems. […] A substrate solution was added, and the intensity of the color produced, which was measured at 450 nm (the correction wavelength was set at 540 nm or 570 nm), was proportional to the amount of PGE2, TNF-α or IL-1β present.
The DNA-binding activity of NF-κB in the nuclear extracts was measured using the TransAM kit (Active Motif, Carlsbad, CA, USA) according to the manufacturer’s instructions.

A further experiment relates to NF-κB (p65). Description: Western blotting of NF-κB (p65) nuclear translocation in LPS-stimulated macrophages. The note with it: pre-treatment 12 h, LPS 1 μg/mL 1 h. Here is the method:
as §1, §2, §3

Take `COc1cc(/C=C/c2ccccc2)oc(=O)c1C` [Penstyrylpyrone (1), penstyrylpyrone]: the “LPS-induced phosphorylation and degradation of IκB-α” value in the experiment with IκB-α is on record as “markedly inhibited”. For the same molecule, the iNOS expression result with iNOS is given as “decreased”. In the experiment on HO-1, the “Suppressive effects on LPS-stimulated NO, PGE2, TNF-α, IL-1β production and NF-κB DNA-binding activity in presence of SnPP” value was “partially reversed by SnPP”. Also, the “Nuclear p65 protein levels (NF-κB translocation)” value in the experiment on NF-κB (p65) is “gradually inhibited”.
